The results in this text go back to article PMC11887051, “Discovery of ONO-2920632 (VU6011887): A Highly Selective and CNS Penetrant TREK-2 (TWIK-Related K+ Channel 2) Preferring Activator In Vivo Tool Compound” (ACS Chemical Neuroscience, 2025).

Molecules are shown by their SMILES.

Series [1] has as its target T1, TREK-1 (Homo sapiens, UniProt O95069).
T1 sequence (O95069 1-426): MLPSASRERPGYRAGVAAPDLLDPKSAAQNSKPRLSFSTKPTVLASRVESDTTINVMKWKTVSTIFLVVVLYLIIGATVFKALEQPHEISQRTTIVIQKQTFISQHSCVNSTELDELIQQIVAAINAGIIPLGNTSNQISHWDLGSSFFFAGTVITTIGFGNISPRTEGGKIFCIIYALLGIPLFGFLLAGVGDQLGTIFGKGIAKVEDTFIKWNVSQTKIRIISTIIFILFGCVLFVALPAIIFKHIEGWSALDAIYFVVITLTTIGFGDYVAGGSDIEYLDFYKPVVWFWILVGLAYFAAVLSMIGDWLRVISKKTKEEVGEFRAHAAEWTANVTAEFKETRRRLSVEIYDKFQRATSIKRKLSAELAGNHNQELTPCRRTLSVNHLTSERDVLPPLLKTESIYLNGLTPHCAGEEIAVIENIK
Nature of the series: TREK-1 thallium flux assay (hTREK-1/CHO). Format: cell-based. Further details: host or cells: CHO. Conditions: for Emax: % activation relative to 10 µM BL-1249. As to the method:
Procedures for Biological Experiments
TREK-1 and TREK-2 thallium flux assay protocol
CHO cells stably expressing human TREK-1 (hTREK-1/CHO) were constructed at Evotec. […]
hTREK-1/CHO or hTREK-2/HEK were plated in 384-well plates at a density of 1.0x10^4 cells/well or 2.0x10^4 cells/well, respectively, and cultured overnight. After the wash by HBSS + 20 mM HEPES buffer, cells were loaded with Thallos dye for 1 hour at room temperature. After the wash […]
dissolved with HBSS + 20mM HEPES buffer were added to each well. After 10 minutes incubation at room temperature, thallium stimulus buffer were added to each well and the fluorescent intensity are measured by Panoptic. The final thallium concentration was 0.36 mM in […]
TREK-1 or 0.24 mM in TREK-2, respectively. […]

Series [2] can be described thus: rat plasma:brain level study (Kp, Kp,uu). The class given is in vivo. The conditions noted are these: male, Sprague-Dawley, brain and plasma; for Kp at 2 h / Kp uu at 2 h: oral rat plasma:brain level study, 2 h after 3 mg/kg PO. As to the method:
In vivo DMPK experimental:
Determination of brain to plasma ratio:
All animal study procedures were approved by the Institutional Animal Care and Use Committee and were conducted in accordance with the National Institutes of Health regulations of animal care covered in Principles of Laboratory Animal Care (National Institutes of Health). All rats were fasted overnight prior to testing. […]
At 15 min post dosing, blood sample was collected into chilled, K2EDTA anticoagulant-fortified tube and immediately placed on wet ice. The blood sample was then centrifuged (1700 rcf, 5 minutes, 4 °C) to obtain plasma sample. At the same post-administration time point, whole brain sample was obtained by rapid dissection, rinsed with PBS, and immediately frozen in individual tissue collection box (dry ice). All brain and plasma samples were stored at -80 °C until […]
Sample Analysis: Concentrations in plasma and brain homogenates were quantified by liquid chromatography tandem mass spectrometry (LC-MS/MS). Whole brains were homogenized in 3 mL of 70:30 IPA:water in a mini bead beater for 3 min, and centrifuged at 3,500 g for 5 min. 5 uL of the supernatant was diluted in 15 uL of blank plasma for quantification of the analytes. Plasma samples were centrifuged at 3,500 g for 5 min. A standard curve was generated by diluting the analytes DMSO stocks with blank plasma to obtain a final concentration of 10,000 ng/ml followed by a serial dilution down to 0.5 ng/ml. Quality controls were generated by a serial dilution of the 5,000 ng/ml standard curve solution in blank plasma to obtain 3 concentrations of 500, 50, and 5 ng/ml. 20 uL of brain diluted in plasma, plasma, blank plasma, standard curve and QC samples were loaded in a V-bottom 96-well plate. 120 uL of acetonitrile containing 0.05 uM carbamazepine (internal standard) was added to each well and the plate was centrifuged at 3,500 g for 5 min. 60 uL of the supernatant of each well (protein free) was transferred to a new 96-well plate containing 60 uL of water. The plates were sealed for analysis by LC-MS/MS.
Plasma and brain tissue samples originating from in vivo studies were analyzed by electrospray ionization using an AB Sciex Q-TRAP 5500 (Foster City, CA) that was coupled to a Shimadzu LC-20AD pump (Columbia, MD) and a Leap Technologies CTC PAL auto-sampler (Carrboro, NC). Analytes were separated by gradient elution using a C18 column (3 x 50 mm, 3 mm; Fortis Technologies Ltd, Cheshire, UK) that was thermostated at 40 °C. HPLC mobile phase A was 0.1% formic acid in water (pH unadjusted); mobile phase B was 0.1% formic acid in acetonitrile (pH […]
min, with an isocratic hold for 0.5 min, before transitioning to 10% B over 0.05 min. The column was re-equilibrated (1 min) before the next sample injection. The total run time was 2.55 min, and the HPLC flow rate was 0.5 ml/min. The source temperature was set at 500 °C, and mass spectral analyses were performed using a Turbo-Ion spray source in positive ionization mode (5.0-kV spray voltage) and using multiple-reaction monitoring of transitions specific for the analytes. All data were analyzed using AB Sciex Analyst 1.5.1 software.
Brain plasma concentration ratio (Kp) was calculated by dividing brain concentration by plasma concentration for each animal. Unbound brain to unbound plasma concentration ratio (Kp,uu) is calculated using the following formula: Kp,uu = (Brain ng/g x brain fu)/(plasma ng/ml x plasma fu).
For determination of the plasma concentration-time profile, compounds were formulated in methyl cellulose and administered as a 3 mg/kg PO dose to male C57BL/6 mouse or SD rat (n = 2). For the same determination, compounds were formulated in HP-β-CD and administered as a 0.1 mg/kg IV dose to male beagle dog (n = 2).
Plasma samples originating from in vivo studies were analyzed by electrospray ionization using a Q-TRAP 5500 (AB Sciex) that was coupled to a Prominence UFLC XR (Shimadzu Corporation). […]

Series [3] addresses T2, mouse TREK-1 (Mus musculus, UniProt P97438).
T2 sequence (P97438 1-426): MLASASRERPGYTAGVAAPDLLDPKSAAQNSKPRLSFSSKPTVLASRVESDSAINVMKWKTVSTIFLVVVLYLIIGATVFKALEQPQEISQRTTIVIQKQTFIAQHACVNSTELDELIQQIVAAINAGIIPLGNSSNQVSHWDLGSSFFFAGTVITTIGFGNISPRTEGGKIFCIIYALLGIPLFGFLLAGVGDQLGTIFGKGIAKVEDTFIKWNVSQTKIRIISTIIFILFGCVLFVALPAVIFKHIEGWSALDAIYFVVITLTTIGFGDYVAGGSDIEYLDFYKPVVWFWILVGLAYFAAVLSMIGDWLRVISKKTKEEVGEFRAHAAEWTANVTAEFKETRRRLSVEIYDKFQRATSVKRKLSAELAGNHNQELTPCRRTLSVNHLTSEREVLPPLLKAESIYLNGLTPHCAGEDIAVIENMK
Nature of the series: mouse TREK-1 MPC assay. Conditions: manual patch clamp. The class given is cell-based.

[4] abbreviates: intravenous, 0.2 mg/kg, rat cassette PK study.

`CS(=O)(=O)Nc1ccc(C(=O)NCc2ccc(Cl)cc2Cl)cc1` [Compound 13]: in series [1], the concentration giving a half-maximal response (EC50) came to 8100 nM and the Emax came out at 85%. In series [2], the Kp at 2 h came to 0.26 and the Kp uu at 2 h stood at 0.15.

`O=C(NCc1ccc(Br)cc1Cl)c1ccc(-c2ncn[nH]2)cc1` [Compound 14a]: in series [3], a half-maximal effect (EC50) was put at 1900 nM and the Emax amounted to 94%. In series [1], this compound returned a concentration giving a half-maximal response (EC50) of 1600 nM and a maximal effect (Emax) of 93%. Also, in series [2] (setting [4]), the Kp at 15 min came to 0.2 and the Kp uu at 15 min came to 0.36.

Turning to `Cc1cc(OC(F)(F)F)ccc1CNC(=O)c1ccc2ncnn2c1` [Compound 19a], in series [3], the concentration giving a half-maximal response (EC50) stood at 5000 nM and the Emax stood at 106%. In series [1], this compound displayed an EC50 of 3800 nM and an Emax of 99%. In series [2], this compound returned a Kp at 2 h of 0.5 and a Kp uu at 2 h of 0.2.

For the compound `O=C(NCc1ccc(OC(F)(F)F)cc1F)c1ccc2ncnn2c1` [Compound 19b], in series [3], the response was half-maximal at 2700 nM (EC50) and the Emax was found to be 109%. In series [1], this compound came in with a concentration for a half-maximal effect (EC50) of 2800 nM and a maximum response (Emax) of 95%. In addition, in series [2], the Kp at 2 h amounted to 0.37 and the Kp uu at 2 h turned out to be 0.38.

For `O=C(NCc1ccc(OC(F)(F)F)cc1Cl)c1ccc2nncn2c1` [Compound 20], the Kp uu in series [2] (rat, dosing not given) is 0.078.
